These are literature values, as cited in patent US20070003642A1 (priority 2002, published 2007).

On to `O=c1c(-c2ccc(O)cc2)coc2cc(O[C@@H]3O[C@H](CO)[C@@H](O)[C@H](O)[C@H]3O)ccc12` [daidzin], for which, under “background statement”, the solubility of daidzin result is listed as “about 3.3 mg/100 ml”.
As to isoflavones, the “solubility of isoflavones itself” value (stated as natural solubility, given as explanation) is listed as “about 5 mg/L”.
